In patent publication US9669038B1, “Heterocyclic compounds and uses thereof” (Globavir BioSciences, Inc., priority 2012, dated 2017):

What was measured:
MCF7 cells = assay: gene expression profiling with Affymetrix Human Gene ST 1.0 Arrays; type: cell-based; conditions: 10 μM, hypoxia (GasPak EZ pouch), |fold-change|>2.0, P<0.005, set of 3328 transcripts
Protocol: (A) Agglomerative hierarchical clustering of expression changes of the 3328 transcripts induced or repressed 2-fold or more (one-way ANOVA, P<0.005) under hypoxia mimicked with GasPak EZ pouch and the four specified conditions: -, no treatment; 1, OOP 1 (10 iuM); 2, OOP 2 (10 μM), 4, OOP 4 (10 μM). Clustering was based on a Pearson centered correlation of intensity ratios for each treatment compared to hypoxic cells (controls) using average-linkage as a distance. Of this hypoxia-induced set, 148 were induced and 449 were inhibited by OOP 1, whereas 217 were induced and 371 inhibited by OOP 2 (|fold-change|>2.0, P<0.005). Treatment with control OOP 4 induced 91 and inhibited 82 transcripts (|fold-change|>2.0, P<0.005). (B) Clustering of expression changes of the 571 transcripts induced or repressed 4-fold or more (P<0.005) by hypoxia mimicked with GasPak EZ pouch under the designated treatment conditions. Clustering parameters were the same as in (A). All reported treatments are error-weighted averages from three experiments. […] Numbers inside the intersections represent hypoxia-induced transcripts affected by the treatments.
Target proteins p300 and CBP are pleiotropic multidomain coactivators, and their CH1 regions contain binding sites for multiple transcription factors. To determine nonspecific genome-wide effects of OOPS, in vitro gene expression profiling experiments were conducted with OOPS using Affymetrix Human Gene ST 1.0 Arrays containing oligonucleotide sequences representing 28,869 transcripts. In order to interrogate cellular genome for global effects, MCF7 cells were treated with OOPS.

[1] = maximum tolerated dose (MTD) study; type: in vivo; conditions: Balb/C mice, intraperitoneal injection every 48 hours, up to 100 mg/kg
Protocol: Balb/C mice were used in an MTD experiment. 1 mouse was present in the vehicle group and 3 mice in OOP 2-treated group. Food and water ad libitum was provided as needed and according to the protocol. OOP 2 was administered by Intraperitoneal (IP) injection. OOP 2 was dissolved in sterile PBS at a concentration range between […]. Volume administered was about 100-150 μl every 48 hours. No toxicity was seen even at 100 mg/kg of OOP 2, at which point the experiment was terminated.

[2] = MTT cytotoxicity assay in MCF7 cells; type: cell-based; conditions: human, MCF7 breast cancer cells, 1 μM to 60 μM
Protocol: One potential issue that arises with the use of transcriptional inhibitors is their cytotoxicity. Therefore, careful assessment of the cytotoxicity is important to evaluate nonspecific, global effects on transcriptional machinery. Cytotoxicity experiments were performed in order to obtain the EC50 values of OOPS in an MCF7 breast cancer cell line.
The cells were treated with different concentrations of compound for 48 hours in serum free F-12K medium. The cells are plated into 96-well dishes (Greiner) at a density of 5,000-10,000 cells/well in 200 μl of the cell culture media prepared as recommended by the vendor (ATCC). The plates are then placed into the incubator (37° C., 5% CO2) until the desired confluence is reached (in ca. 24-72 hours). Next, the media in all wells is replaced with the solution of the OOPS compound (150 μl for 48 hour study, 200 μl for 72 hour study) in the appropriate cell culture medium. The plates are then incubated for 48 hours (37° C., 5% CO2). […] The resulting purple precipitate is then dissolved in DMSO (200 μl/well) and the absorption of the metabolite product (purple formazan) in each well is measured at 562 nm using microplate reader (BioTek Synergy II). The absorption values are plotted against the concentration of the compound and GI50 is determined.

c-Met = assay: Western blot of intracellular c-Met levels in A549 cells; type: cell-based; conditions: A549 whole cell extract, 24 h incubation, hypoxia for last 18 h
Protocol: Western blot analysis of c-Met levels (A) with β-actin used as a control (B) in the whole cell extract of A549 cells. Cells were incubated for a total of 24 hours with OOP 2. After 6 h, hypoxia was mimicked by O2 deprivation in a GasPak™ EZ Anaerobe Pouch System (BD) for an additional 18 h.
(§1) The effect of OOPS on HIF-1α and c-met protein levels was studied. A549 cells were treated with OOPS. Cells were incubated for a total of 24 hours with OOP 2. After 6 h, hypoxia was mimicked by O2 deprivation in a GasPak™ EZ Anaerobe Pouch System (BD) for an additional 18 hours.

LOX gene = assay: qRT-PCR of hypoxia-induced LOX transcription in A549 cells; type: cell-based; conditions: hypoxia (GasPak EZ Anaerobe Pouch), real-time qRT-PCR
Protocol: (§2) Hypoxia was mimicked by O2 deprivation in a GasPak™ EZ Anaerobe Pouch System (BD). […] Error bars are ±s.e.m. of four independent experiments. *** P<0.001, t-test.
(§3) A549 cells, a non-small cell lung adenocarcinoma cell line, were used. It has been reported that A549 cell line produces robust upregulation of key HIF-inducible genes under hypoxia conditions. […] A549 cells were maintained in 2% serum followed by treating cells with compound or control in the media with 0.2% serum for 48 h.
(§4) mRNA levels of three HIF-1α inducible genes: VEGF, c-Met and […] in A549 cells after treatment with OOPS were measured. Data from qRT-PCR experiments showing mRNA levels of three HIF-1α inducible genes, VEGF, c-Met and LOX in A549 after treatment of the cells in a medium with OOPS is described in FIGS. 1-3. Hypoxia was mimicked by O2 deprivation in a GasPak™ EZ Anaerobe Pouch System (BD). Error bars are ±s.e.m for the experiments performed in quadruplicate. Error bars are ±s.e.m. of experiments performed in triplicate. *** P<0.001, ** P<0.01, t test.

VEGFA gene = assay: qRT-PCR of hypoxia-induced VEGFA transcription in A549 cells; type: cell-based; conditions: hypoxia (GasPak EZ Anaerobe Pouch), real-time qRT-PCR
Protocol: as §2, §3, §4

[3] = tested on: HIF1α-inducible promoter activity; assay: luciferase-based hypoxia-inducible promoter activity assay, MDA-MB-231-HRE-Luc cell line; conditions: MDA-MB-231-HRE-Luc cells, various concentrations
Protocol: Results from the luciferase-based promoter activity assay with MDA-MB-231-HRE-Luc cell line treated with OOP 1 at various concentration. Hypoxia was mimicked by O2 deprivation in a GasPak™ EZ Anaerobe Pouch System (BD). Error bars represent ±s.e.m. of experiments performed in triplicates. * P<0.05, ** P<0.01, t-test, relative to sample Vehicle Hypoxia.
An analysis of hypoxia-inducible promoter activity was performed using luciferase assays in a MDA-MB-231 cell line stably transfected with hRE-hCMV-Luc plasmid. Cell lines were treated with OOP compounds at various concentrations. Hypoxia was mimicked by O2 deprivation in a GasPak™ EZ Anaerobe Pouch System (BD). Error bars represent ±s.e.m. of experiments performed in triplicates.

HIF-1α = assay: Western blot of intracellular HIF-1α levels in A549 cells; type: cell-based; conditions: A549 whole cell extract, 24 h incubation, hypoxia for last 18 h
Protocol: Western blot analysis of HIF-1α levels (A) with β-actin used as a control (B) in the whole cell extract of A549 cells. Cells were incubated for a total of 24 hours with OOP 2. After 6 h, hypoxia was mimicked by O2 deprivation in a GasPak™ EZ Anaerobe Pouch System (BD) for an additional 18 h.
as §1

c-Met gene = assay: qRT-PCR of hypoxia-induced c-Met transcription in A549 cells; type: cell-based; conditions: hypoxia (GasPak EZ Anaerobe Pouch), real-time qRT-PCR
Protocol: as §2, §3, §4

| Compound | number of transcripts induced, of the hypoxia-induced set (MCF7 cells) | number of transcripts inhibited, of the hypoxia-induced set (MCF7 cells) | toxicity in MTD study [1] | EC50 at 48 h [2] [µM] | intracellular levels of c-Met (Western blot) (c-Met) | expression levels of LOX gene (mRNA) (LOX gene) | expression levels of VEGFA gene (mRNA) (VEGFA gene) | HIF1α-inducible promoter activity (luciferase) [3] | intracellular levels of HIF-1α (Western blot) (HIF-1α) | expression levels of c-Met gene (mRNA) (c-Met gene) |
| --- | --- | --- | --- | --- | --- | --- | --- | --- | --- | --- |
| CC(C)C[C@@H]1NCCN([C@@H](CC(C)C)C(=O)N2CCN([C@@H](CCC(N)=O)C(N)=O)C(=O)[C@@H]2C)C1=O [OOP 2] | 217 | 371 | No toxicity | 30 | decreases intracellular levels of c-Met | reduced expression levels of LOX gene | reduced expression levels of VEGFA gene | reduces HIF1α-inducible promoter activity in vitro in a dose-dependent manner | does not decrease the intracellular levels of HIF-1α | reduced expression levels of c-Met gene |
| C[C@@H]1NCCN([C@@H](C)C(=O)N2CCN([C@@H](C)C(N)=O)C(=O)[C@@H]2C)C1=O [OOP 4] | 91 | 82 |  |  |  | no inhibitory activity | no inhibitory activity | does not affect HIF1α-inducible promoter activity |  | no inhibitory activity |
| CC(C)C[C@@H]1NCCN([C@@H](CC(C)C)C(=O)N2CCN([C@@H](C)C(N)=O)C(=O)[C@@H]2C)C1=O [OOP 1] | 148 | 449 |  | 30 |  |  |  | reduces HIF1α-inducible promoter activity in vitro in a dose-dependent manner |  |  |
| CC(C)C[C@H](N)C(=O)N1CCN([C@@H](C)C(=O)N2CCN([C@@H](C)C(N)=O)C(=O)[C@@H]2CC(C)C)C(=O)[C@@H]1CCCNC(=N)N [OOP 3] |  |  |  |  |  |  |  | reduces HIF1α-inducible promoter activity in vitro in a dose-dependent manner |  |  |
